The source of these data is paper PMC5473904, “Epigenetic and antitumor effects of platinum(IV)-octanoato conjugates” (Scientific Reports, 2017).

In data set [1] the test system is A2780cisR human ovarian carcinoma cells. Briefly: MTT cytotoxicity, 72 h. The format is cell-based. Conditions: for RF, resistance factor: IC50 (resistant, A2780cisR)/IC50 (sensitive, A2780); for IC50: MTT, 72 h, platinum complexes. As to the method: (§1) Cytotoxic activity of the compounds tested in the present work was screened on the panel of malignant and nonmalignant cell lines using the colorimetric MTT assay and 72 h of drug incubation period.
(§2) Cell death was evaluated using a system based on the tetrazolium compound MTT [3-(4,5-dimethyl-2-thiazolyl)-2,5-diphenyl-2H-tetrazolium bromide]. The cells were seeded in 96-well tissue culture plates at a density of 10^4 A2780cisR, LNCaP, HSF cells/well, 3 × 10^3 CHO-K1 or 4 × 10^3 MCF7, HCT-116 and MRC5 pd30 cells/well in 100 μL of medium. After overnight incubation (16 h), the cells were treated with the compounds in a final volume of 200 μL/well. After additional 72 h, 10 μL of a freshly diluted MTT solution (2.5 mg mL^−1) was added to each well, and the plate was incubated at 37 °C in a humidified 5% CO2 atmosphere for 4 h. At the end of the incubation period, the medium was removed, and the formazan product was dissolved in 100 μL of DMSO. The cell viability was evaluated by measurement of the absorbance at 570 nm, using an Absorbance Reader SUNRISE TECAN SCHOELLER. IC50 values were calculated from curves constructed by plotting cell survival (%) versus drug concentration (μM). All experiments were made in triplicate. The reading values were converted to the percentage of control (% cell survival). Cytotoxic effects were expressed as IC50.

Data set [2] deals with HCT-116 human colorectal carcinoma cells. Briefly: MTT cytotoxicity, 72 h. Conditions: for IC50: MTT, 72 h, platinum complexes and decitabine. The format is cell-based. As to the method:
as §1, §2

In data set [3] the test system is CHO-K1 Chinese hamster ovary cells. As to the kind of experiment: MTT cytotoxicity, 72 h. In kind it is cell-based. Conditions: platinum complexes. As to the method: as §1, §2
Data set [4] relates to MCF-7 human breast cancer cells. Briefly: MTT cytotoxicity, 72 h. The format is cell-based. Particulars: platinum complexes. As to the method: as §1, §2
Data set [5] is described as follows: Biodistribution of platinum after oral administration (ICP-MS). The format is in vivo, C57BL mice. Particulars: LLC-bearing mice; for Percentage of the administered drug reaching the tumor mass / Tissue platinum distribution: single oral dose 20 mg kg-1, 4 h; for Platinum concentration in blood: whole blood, single oral dose 20 mg kg-1, 1 and 4 h. The source says: It was previously shown for a similar series of dicarboxylato Pt(IV) compounds that organic chains of intermediate length offer the best compromise between lipophilicity and water solubility for oral administration. […] The details of these experiments and their results are described in the Supplementary material and Supplementary Fig. S2. […] In contrast, platinum scarcely accumulated in intestine and lung. Noteworthy, a slightly higher platinum content was found in the tumor mass in the mice treated with Pt(IV)diOA than in those treated with Pt(IV)diVPA. […]
Biodistribution after oral administration
For Pt(IV) complexes having axial carboxylato ligands, the lipophilicity increases as the number of carbon atoms in the chain increases. This lipophilicity increase offers a beneficial effect on the cellular accumulation and in vitro cytotoxic potency up to a point where the drop in water solubility impedes the administration of the drugs (around C8-C10 carbon chains)1,2.
Moreover, excessive lipophilicity can hinder transport of such Pt(IV) derivatives in vivo across intestinal epithelial cells making them more vulnerable to hepatic metabolism.
It was previously shown for a similar series of dicarboxylato Pt(IV) compounds (except the VPA-derivative) that organic chains of intermediate length offer the best compromise between lipophilicity and water solubility for oral administration3. To better understand the biodistribution properties of the Pt(IV) complexes, following administered by oral gavage in a -1 single dose (20 mg kg ), tissue samples collected from LLC-bearing mice were analyzed by ICP-MS. After 1 and 4 h, blood samples were collected and subsequently animals were sacrificed, and tissue samples were collected. The platinum levels in tumor, kidney, liver, intestine, lung and whole blood aliquots are shown in Fig. S2, panels A and B. It is important to recall that using this protocol it is possible to estimate only the overall Pt content and not its oxidation state or speciation [i.e. Pt(IV) metabolites or Pt(II) metabolites produced by reduction and further interactions]. […]
Biodistribution after oral administration. For in vivo kinetic experiments, 8-10 week old C57BL mice (24 ± 3 g body weight) received the drugs as an oral gavage single dose of -1 butanoato, hexanoato, octanoato and valproate Pt(IV) complexes (20 mg kg , dissolved in a vehicle solution composed of 20% Cremophor EL (v/v), 20% PEG400 (v/v) and 60% saline solution (v/v)). At each time point (1 and 4 h, respectively), animals were anesthetized, and blood was collected by a vain tail puncture. In addition, samples of organs (kidney, liver, lung and intestine) and tumor were collected at 4 h and stored at −20 °C. Blood, organ samples and tumor were subjected to quantitative determination of platinum content.−1 The samples were treated with highly pure nitric acid ([Pt] ≤ 0.01 μg kg TraceSELECT Ultra, Sigma Chemical Co.) and transferred into a microwave Teflon vessel. Subsequently, samples were submitted to the standard procedure using a speed microwave. After cooling, each mineralized sample was analyzed for platinum by ICP-MS (ThermoOptek X Series 2). Instrumental settings were optimized to achieve maximum sensitivity for platinum. For quantitative determination, the most abundant isotopes of platinum and indium (used as internal standard) were measured at m/z 195 and 115, respectively.
Accumulation of platinum in tumor cells treated with Pt(IV) complexes and cisplatin (in cellulo experiments) in the absence of serum. A2780 cells were seeded in 10 mm Petri dishes and treated with the platinum complexes (10 μM) for 4 h in complete medium, i.e. + 10 % FBS (HyClone, GE Healthcare). At time zero, 100 μL of medium was taken out from each sample to check the extracellular Pt concentration. At the end of the exposure, cells were washed three times with phosphate-buffered saline (PBS), detached from the Petri dishes using 0.05% Trypsin 1X + 2% EDTA (HyClone, GE Healthcare) and harvested in fresh […]

For `CC(=O)[O][Pt]([NH2])([NH2])([Cl])([Cl])[O]C(C)=O` [Pt(IV)diAc, cis, cis, trans-[Pt(IV)(NH3)2Cl2(Ac)2]], the “RF, resistance factor” value in data set [1] was 4.2. The IC50 in data set [1] amounted to 22 ± 3.1 µM; in data set [2], 35.3 ± 1.4 µM; in data set [3], 14.5 ± 0.7 µM; in data set [4] it was 51 ± 4 µM.
Regarding `CCCC(CCC)C(=O)[O][Pt]([NH2])([NH2])([Cl])([Cl])[O]C(=O)C(CCC)CCC` [Pt(IV)diVPA, cis, cis, trans-[Pt(IV)(NH3)2Cl2(VPA)2]], in data set [5], the “Percentage of the administered drug reaching the tumor mass” value is around 10%; the Tissue platinum distribution result was “the highest platinum concentrations were found in liver followed by tumor tissue and kidney”; the “Platinum concentration in blood” value was “around 0.5 μg Pt mL^−1”.
As to `N.N.[Cl][Pt][Cl]` [cisplatin, reference compound], the “RF, resistance factor” value in data set [1] was 4.9. Besides, the half-maximal inhibitory concentration (IC50) turned out to be 13.8 ± 0.1 µM in data set [1], 5.9 ± 0.9 µM in data set [2], 19.9 ± 1 µM in data set [3] and 17.4 ± 1.9 µM in data set [4].
For `CCCCCCCC(=O)[O][Pt]([NH2])([NH2])([Cl])([Cl])[O]C(=O)CCCCCCC` [Pt(IV)diOA, cis, cis, trans-[Pt(IV)(NH3)2Cl2(OA)2]], in data set [5], the “Percentage of the administered drug reaching the tumor mass” value is “about 18%”. In addition, in data set [5], the Tissue platinum distribution entry is “the highest platinum concentrations were found in liver followed by tumor tissue and kidney”. The “Platinum concentration in blood” value in data set [5] is “around 0.5 μg Pt mL^−1”. Moreover, in data set [1], the “RF, resistance factor” value is 0.7. The IC50 in data set [1] amounted to 0.029 ± 0.002 µM; in data set [2], 0.017 ± 0.003 µM; in data set [3], 0.14 ± 0.02 µM; in data set [4], 0.038 ± 0.006 µM. Further, the “Increase of cytotoxicity vs. cisplatin” value in data set [2] (HCT-116, Fig. 2B) stood at 347 x. Besides, in data set [2] (HCT-116, Fig. 2D), the “Increase of cytotoxicity vs. Pt(IV)diAc” value stood at 2076 x.
